Test results reported in patent publication US8481084B2, “Cholesterol-interacting layered phyllosilicates and methods of reducing hypercholesteremia in a mammal” (Amcol International Corporation, priority 2007, dated 2013).

How the values were obtained:
[1] = test system: intestinal cholesterol absorption; experiment: Absorption of orally given [3H]cholesterol in rats, plasma AUC (Example 12); type: in vivo, male Sprague Dawley rats
Procedure: The following Example was performed to determine the bioavailability and pharmacokinetics of dietary cholesterol following oral administration of different layered phyllosilicate material compounds to male Sprague Dawley rats, using the methodology reported in Wassan et al. J. Pharmaceut. Sci., 90:23-28, 2001.
Preparation of cholesterol formulation: Commercially available 20% Intralipid® was diluted by external phase of emulsion to reach a triglyceride concentration of 10% v/v. Cold cholesterole as dissolved in 100% ethanol (1 mg/75 μl) and the solution was slowly added to the 10% Intralipid® with magnetic stirring. [^3H]cholesterol toluene solution (25 μl/ml) was then slowly added and then vortexed for 30 seconds. The formulation was then mixed by magnetic stirring for an additional 30 minutes until ready for administration. The final formulation contained 90% of the 10% Intralipid®, 7.5% ethanol and 2.5% toluene. The final concentrations of cold and radiolabeled cholesterol were 1 mg/ml and 25 μCi/ml, respectively.
Preparation of Ezetimibe Formulation: Commercially Available Ezetimibe Tablets were crushed and suspended in double distilled water to reach final ezetimibe concentration of 5 mg/ml. The suspension was briefly vortexed and then stirred using a magnetic stirrer for about 1 hour until ready for administration.
Preparation of the Stigmastanol Formulation: Stigmastanol was Pre-Wetted by Tween 80 (1% v/v final concentration) and suspended in 2% sodium carboxymethyl cellulose solution in double distilled water. The suspension was briefly vortexed for about 3 minutes, sonicated (Bransonic®3510) for 2 hours at ambient temperature and then stirred with a magnetic stirrer for 30 minutes until ready for administration. The final concentration of stigmastanol in the suspension was 25 mg/ml.
Experimental design: All rats used in this study were cared for in accordance with the principles promulgated by the Canadian Council on Animal Care and the University of British Columbia. Adult male Sprague Dawley rats (weighing approximately 350 g) were obtained from UBC animal care unit (Vancouver, B. C., Canada). The rats were maintained under a 12 hour light ([…])/dark cycle and supplied with a standard laboratory diet (PMI Feeds, Richmond, Va., USA) and water ad libitum. The right external jugular vein was cannulated with a two-part catheter consisting of PE 50 connected to a short length of 0.02 inch silastic tubing inserted 3.2 cm past the clavicle (Hauss et al., Contemp Top Lab Anim Sci., 37(3):56-58 1998). The jugular cannula was tunneled beneath the skin and exteriorized through a small stab wound in the back of the neck. The animals were outfitted with jacket-and-tether assemblies and placed in metabolism cages for the duration of the study.
Following completion of the surgical procedures, the animals were fasted overnight and permitted to recover for 16-20 hours. Free access to a drinking solution consisting of 5% glucose in lactated Ringer's solution was permitted postoperatively and throughout the study. The following treatment protocol was used. Following an overnight fast (12-16 hours), rats were divided into one of the following fourteen treatment groups and received a single-dose oral gavage (1 g Intralipid emulsion) at 0700 h of either:
All of test Compounds A, G, H, I, J, K, L or M were given as a separate slurry to the animal by oral gavage.
Following oral administration, serial blood samples were collected into EDTA-coated tubes predose and at 10 minutes predosing and at 0.5, 1, 2, 4, 6, 10, 24 28, 32 and 48 hours postdosing. The withdrawn blood was replaced by equal volume of normal saline to prevent hypovolemia. Rats remained fasted throughout the duration of blood sampling (12 h predosing+24 h postdosing=[…] total fasting). Plasma was obtained by centrifugation and analyzed for [^3H] cholesterol by radioactivity. […]

[2] = test system: New Zealand Male Rabbits fed a high cholesterol diet; experiment: Plasma lipids in rabbits fed a high cholesterol diet, severe dyslipidemic model (Example 11); type: in vivo, New Zealand white rabbits
Procedure: Male New Zealand white rabbits ([…]; Control group [n=5], Simvastatin Group [n=4], Compound A Group [n=5], Compound B Group [n=5] and Compound C Group [n=5]) were housed in individual cages in a room with constant humidity and temperature (22° C.) under a 12 h light-dark cycle, and fed a standard diet for 7 days. After 7 days, animals were fed 10 g of a regular chow diet plus 100 g of the same diet supplemented with 0.5% (w/v) cholesterol and 14.0% (w/v) coconut oil for an additional 28 days. The final diet administered to these rabbits (following dilution of 100 g of high fat/cholesterol diet with 10 g of regular chow) consistent of 0.45% (w/v) cholesterol and 12.75% (w/v) coconut oil. […] The total plasma cholesterol, ApoB, HDL and triglyceride concentrations of the subjects prior to drug treatment is set forth in FIGS. 1-4, respectively.
For an additional 21 days (day 35 to day 56 of the study), a group of control animals (n=5) were maintained on the same diet (10 g regular chow diet plus 100 g of cholesterol/coconut diet) and four groups of animals were fed 100 g of cholesterol/coconut diet plus 10 g regular chow diet containing either simvastatin (3 mg/kg/day; n=4), Compound A (hydrogen protonated layered phyllosilicate material (prepared as described above in Example 2); 20 mg/kg/day; n=5), Compound B (layered phyllosilicate material with surface modified with lecithin prepared as described above in Example 5); 20 mg/kg/day; n=5) and Compound C (layered phyllosilicate material with surface acid treatment prepared as described above in Example 6) 20 mg/kg/day; n=5). Whole blood was collected (3 ml) prior to and 7, 14, and 21 days after initiation of treatment for plasma lipid determinations.
Plasma total cholesterol and triglyceride concentrations were directly quantified using enzymatic kits (Sigma Aldrich). HDL-cholesterol concentrations were determined using the dextran sulfate-Mg^2+ precipitation method as developed by Wamick et al. (9). The Friedewald equation for determining LDL cholesterol could not be used in this rabbit fed model (10). However, measurement of apoB cholesterol (which takes into account LDL-cholesterol) concentrations were determined by subtracting HDL-cholesterol concentrations from total cholesterol concentrations.
Statistical analysis: Results are expressed as mean±standard error of the mean (SEM). Statistical analyses were conducted using an analysis of variance (PCANOVA; Human Dynamic Systems) and assuming unequal variance (Newman Keuls post-hoc test; assuming unequal variance). Variables compared among treatment groups include, weight gain, total plasma cholesterol, total plasma triglyceride, HDL-cholesterol and ApoB-cholesterol. A p-value of less than 0.05 indicates a significant difference between treated and untreated groups.

With `CC[C@H](CC[C@@H](C)[C@H]1CC[C@H]2[C@@H]3CC[C@H]4C[C@@H](O)CC[C@]4(C)[C@H]3CC[C@]12C)C(C)C` [stigmastanol] the “% of control group (AUC0-48 h)” value ([1]; 50 mg/kg) was 68.9% and the “AUC0-48 h of cholesterol (mean ± SEM)” value ([1]; 50 mg/kg oral with [3H]cholesterol) was 55742 ± 3764 ng·h/mL.

In the case of `O=C1[C@H](CC[C@H](O)c2ccc(F)cc2)[C@@H](c2ccc(O)cc2)N1c1ccc(F)cc1` [ezetimibe], the “% of control group (AUC0-48 h)” value ([1]; 10 mg/kg) is reported as 8.6%, the AUC0-48h (mean±SEM) ([1]; 10 mg/kg ezetimibe) is reported as 6940 ± 462 ng·h/mL and the “AUC0-48 h of cholesterol (mean ± SEM)” value ([1]; 10 mg/kg oral with [3H]cholesterol, control 80861 ± 5911) is reported as 6937 ± 462 ng·h/mL. The “inhibition of intestinal cholesterol absorption, in words” value ([1]; ezetimibe 10 mg/kg versus Compound A or stigmastanol 50 mg/kg) was “higher inhibition”.

In the case of `CCC(C)(C)C(=O)O[C@H]1C[C@@H](C)C=C2C=C[C@H](C)[C@H](CC[C@@H]3C[C@@H](O)CC(=O)O3)[C@H]21` [Simvastatin, simvastatin], the “ApoB-Cholesterol, % C (percentage change from Day 35 to Day 56)” value ([2]; SVT 3 mg/kg/day, A, B, C 20 mg/kg/day, control +63%) is reported as −53%, the “Total Cholesterol, % C (percentage change from Day 35 to Day 56)” value ([2]; SVT 3 mg/kg/day, A, B, C 20 mg/kg/day, control +68%) is reported as −52% and the “Total Cholesterol, Day 35” value ([2]; beginning of drug treatment (day 35), mean ± SEM, SVT 3 mg/kg/day, A, B, C 20 mg/kg/day) is reported as 1167 ± 276 mg/dL. For the same molecule, the “ApoB-Cholesterol, Day 35” value ([2]; beginning of drug treatment (day 35), total minus HDL cholesterol, mean ± SEM) was 1092 ± 265 mg/dL, the “Total Cholesterol, Day 56” value ([2]; end of drug treatment (day 56), mean ± SEM, SVT 3 mg/kg/day, A, B, C 20 mg/kg/day) was 556 ± 122 mg/dL and the “ApoB-Cholesterol, Day 56” value ([2]; end of drug treatment (day 56), total minus HDL cholesterol, mean ± SEM) was 517 ± 121 mg/dL.
